According to patent US5747461A, “Synergistic administration of cyclosporine and fructose diphosphate” (priority 1994, dated 1998):
Values joined by “and” are separate entries in the source; they are usually repeats but may differ in a detail not shown here. Identical values can stand only once.

Legend:
[1] = tested on: ischemically stored livers; assay: Oxygen consumption after hypothermic ischemic storage, liver; parameters: species or system rat; conditions: livers n=12; FDP 1 mg/ml in storage solution; storage 17.62±0.22 hours at 4° C.; measured at 36.4° C.
Method: (§1) Sprague Dawley rats (150-180 gm/body weight) were anesthetized with Ketamine 35 mg/kg. The liver, kidney and heart were excised and placed in 50 ml of a standard cardioplegia solution sold under the trademark ISOLYTE (which contained Na^+ -41 mEq/L, K^+ -16 mEq/L, Ca^++ -5 mEq/L, Mg^++ 3 mEq/L, Cl^- -40 mEq/L, acetate 24 mEq/L with 5% Dextrose), precooled to 4° C. To half of the storage containers, 1 mg/ml of 10% FDP was added; to the rest of the containers, a similar amount of glucose was added. The containers were placed on ice in a refrigerator. After storage for 16 to 20 hours, the organs were weighed and placed in a metabolic chamber for determination of oxygen consumption,using a Clark polarographic electrode. The total volume of the chamber was 10 ml and the composition of the medium was 8 ml phosphate buffered saline (PBS Dulbecco, Mg^++ and Ca^++ free) and 2 cc of Dextrose at a temperature of 36°±0.2° C. The organ was placed in the chamber and 100% oxygen was bubbled for 45 sec. The partial pressure of the dissolved oxygen was usually 480-560 mm Hg. Then the chamber was sealed hermetically, and O2 consumption by the organ was recorded on a strip chart recorder at a speed of 1 cm/min. Initial and final PO2 levels of medium in the chamber were measured on a Radiometer Blood Gas Analyzer Model ABL-4.

[2] = tested on: cardiac allograft (Wistar-Furth donor heart in Lewis rat); assay: Intra-abdominal heart transplantation, series 1 (graft survival, rejection grade); assay type: in vivo
Excerpt: Since unwanted T cell stimulation is known to be a primary factor in causing allograft rejection, the results of the in vitro studies discussed above, showing that FDP can suppress T cell stimulation, led to a series of in vivo tests using heart transplantations in rats. These tests are described in detail in Example 2. Briefly, laboratory rats from a strain known as Lewis rats were used as recipients, while rats from a different strain known as Wistar-Furth were used as heart donors.
In the recipient animals, the native heart was not cut out and replaced by a new heart. […] This model provides a good test to determine whether the body will reject the foreign tissue, yet it avoids the extraordinary difficulties that would arise if the animal's native heart were cut out.
In the first round of tests, four treatment groups and one control group were established. The control group received no FDP. The four treatment groups were injected intravenously with 350 mg/kg of FDP 15 minutes prior to surgery, at a dosage of 350 mg/kg (i.e., 350 mg of FDP per kilogram of body weight). The treatment animals also received a 90 minute infusion of FDP during the operation, at a rate of 10 mg/kg/min. In addition to these "perioperative FDP" injections, the four treatment groups also received:
The animals were examined daily for viability. […] When the transplanted heart reached a level of non-viability, a lethal dose of pentobarbital was given, and the heart was removed, examined microscopically, and graded for rejection using the Stanford grading scale.
If a transplanted heart stopped beating prior to three days postoperatively, that animal was dropped from the study. Rats that died within five days of the operation for unknown causes were also dropped from the study. These deaths were believed to be secondary to sepsis, rather than caused by tissue rejection. Also, one animal in Group 1 died from a suture fracture; this animal was also dropped from the study.
Male Wistar-Furth rats (WF;RT-1^u) and male Lewis rats (Lew;RT-1^1)were obtained from Harlan Sprague-Dawley Animal Laboratories. Lewis rats weighing (200-224 gm) were used as recipients. WF rats weighing (200-224 gm) were used as donors.
The Lewis rats were anesthetized with a mixture of ketamine (100 mg/kg) and xylocaine (5 mg/kg) by intraperitoneal injection (IP) 1 to 2 days prior to transplantation. At this time, PE-90 tubing was placed in the internal jugular vein and brought out through the posterior aspect of the neck. The rats were placed in individual cages to prevent dislodging of the catheter. No limits were placed on water or rat chow.
The transplantation procedure was a modified version of Ono and Lindsey's microvascular technique for intra-abdominal transplantation. WF rats were anesthetized with pentobarbital (50 mg/kg). The chest and abdomen were shaved and prepped with betadine and then placed on a thermostatically controlled operating platform. […] After three minutes, the sternum and anterior chest were separated from the diaphragm and lateral ribs with heavy scissors. The chest cavity was opened and the IVC was ligated using a 5-0 silk ligature. The aorta was then dissected out and cross clamped at the level of the innominate artery. Three cc of cold cardioplegia solution (4° C.) was injected into the aortic root with a 25 gauge needle. The aorta was divided below the clamp. The pulmonary artery was dissected free and divided at its bifurcation. […] The heart was then removed and placed in iced saline with heparin (2 units/ml).
Lewis rats were then anesthetized in a similar fashion. After shaving and prepping the abdomen, a mid-line incision was made. The IVC and the infrarenal aorta were mobilized together. A curved bulldog was then used to cross clamp the vessels. The anastomosis was sewn between the […] and IVC using a 9-0 Ethicon microsurgical suture. The aorta-aorta anastomosis was then performed in a similar end-side fashion. […]

[3] = tested on: rat cardiac allograft; assay: Intra-abdominal heart transplantation, series 2 (FDP alone and with cyclosporine); assay type: in vivo; conditions: FDP pre and perioperative only (350 mg/kg IV, infusion 10 mg/kg IV for 90 min); n=5
Method: In a second series of in vivo tests, FDP alone and in conjunction with cyclosporine was tested for its ability to suppress allograft rejection and prolong survival of the transplanted heart. […] Therefore, these tests evaluated FDP in conjunction with sub-optimal doses of CSA.
In these tests, the same procedure as described above was used to transplant hearts into the abdomens of recipient animals. Unlike the earlier tests, the animals also received prophylactic antibiotic treatment following surgery, as well as daily application of Bacitracin ointment of the site of the venous catheter.
The surgical technique used in these tests was exactly the same as described in Example 2, except the animals in this series of tests received prophylactic antibiotic treatment following surgery, and daily application of Bacitracin ointment of the site of the venous catheter.
The animals were divided into the following 6 groups: […]

[4] = tested on: ischemically stored kidneys; assay: Oxygen consumption after hypothermic ischemic storage, kidney; parameters: species or system rat; conditions: kidneys n=11; FDP 1 mg/ml in storage solution; 16 to 20 hours storage
Method: as §1

[5] = tested on: Concanavalin A-stimulated T-lymphocytes; assay: Thymidine incorporation by Concanavalin A-stimulated T-lymphocytes; assay type: cell-based, rat; conditions: ConA-stimulated
Method: The in vitro tests, and their results, are described in detail in Example 1. Briefly, T lymphocytes were obtained from rat spleens. The cells were then stimulated by Concanavalin A (ConA), a mitogen that specifically stimulates T lymphocyte replication, both in control samples and in samples that were also contacted with either FDP or cyclosporine at various concentrations. Cell replication was measured by assaying the uptake of thymidine which had been radiolabelled using tritium, a heavy isotope of hydrogen. Cell viability was measured using a dye, trypan blue; intact and viable cells can exclude trypan blue from their interiors, while damaged or dead cells cannot.
Sprague-Dawley rats (150-200 gm body weight) were euthanized by overdose of ketamine (injected intramuscularly, IM). Their spleens were removed under sterile conditions and placed in a plastic petri dish with Buffered Hanks Solution (BHS). The splenic parenchyma was torn apart with sterile needles and forceps. The solution with the splenic fragments was homogenized with a Teflon pestle in a glass tube. This allowed the cells to be expressed into the solution which was then filtered and placed over Ficoll-Hypaque and centrifuged at 1500 RPM for 20 minutes in order to separate mononuclear cells. The middle layer of cells (containing lymphocytes) was removed and centrifuged at 1000 RPM for 10 min. After removing the supernates, the remaining red blood cells were lysed with 0.83% NH4 Cl solution, and the cells were again centrifuged at 1000 RPM for 2-3 min. The supernate was poured off and the cells were washed twice with BHS and then resuspended in tissue culture media (RPMI-1640 with 10% fetal calf serum). The cells then were adjusted to final concentration of 5×10^6 cells/ml with RPMI-1640 and 10% fetal calf serum.
A tissue culture multi-well plate was used for incubation. All well filling was done under sterile conditions. […] The well volume capacity was 0.35 ml.
Six different dilutions (freshly prepared in sterile water solution from 10% FDP stock solutions) were used--1:10, 1:100, 1:250, 1:500, 1:1000 and 1:10000. […] A few wells were used to measure the stimulation index, and received ConA or RPMI without FDP or Cyclosporine. All combinations were run in triplicate. The wells were labeled and incubated with CO2 at 35° C. for 48 hours.
Each well then received 0.05 ml of tritiated (^3 H) thymidine (1 μCi/0.05 ml). Radiolabelled thymidine is taken up by proliferating lymphocytes, allowing them to be counted using a liquid scintillation counter. After 16 to 20 hours of incubation the samples were harvested onto glass filter paper strips using a multiple automated sample harvester. The paper was allowed to dry 4-5 hours. Paper from each well was placed in scintillation counting vials with 5 ml fluorane (scintillene). […] Significance was assessed by unpaired t-test.

[6] = tested on: ex vivo stored hearts; assay: Ex vivo cold ischemic storage and reperfusion of hearts (Langendorf apparatus); parameters: species or system rat
Method: Hearts were harvested from ketamine-anesthetized Sprague Dawley rats (350-450 gm body weight). Prior to harvesting the hearts, 17 randomly chosen rats received an intravenous bolus injection of FDP 450 mg/kg (10%). The hearts were removed, the left atria and aorta were attached to a modified Langendorf apparatus within 3 min, and the hearts were perfused ex vivo for 15 min at 37° C. with Krebs-Henseleit solution to which 0.07 mg/ml of FDP had been added. Rats in the control group (n=21) received an equivalent volume saline injection prior to surgery, and the hearts were perfused for 15 min with Krebs-Henseleit solution containing no FDP. Heart rates, systolic and diastolic pressures, cardiac outputs, and coronary blood flow during this period were measured and recorded.
After the 15 minute perfusion period, the control hearts (n=21) were flushed with cardioplegic solution (Isolyte, K^+ 20 mEq/L). The FDP=treated hearts (n=17) were flushed with the same solution containing 1 mg/cc of FDP. The hearts were respectively placed in cold (4° C.) saline solution, with 0.9% NaCl or 0.9% NaCl containing 1 mg/ml FDP, and stored at 4° C. for 4 hours. After the 4 hour storage period was completed, the hearts were reperfused and warmed to 37° C. again. Seven hearts from each group were taken out of the Langendorf apparatus after 15 minutes and analyzed for myocardial ATP content. The remaining hearts (10 in the treatment group, and 14 in the control group) were measured in various ways (heartbeat rates, mean aortic and systolic pressures, and cardiac output) for 2 hours following the commencement of reperfusion.

[7] = tested on: ischemically stored hearts; assay: Oxygen consumption after hypothermic ischemic storage, heart; parameters: species or system rat; conditions: hearts n=4; FDP 1 mg/ml in storage solution; 16 to 20 hours storage
Method: as §1

[8] = Group 1 perioperative FDP, Stanford grading scale

O=C(COP(=O)(O)O)[C@@H](O)[C@H](O)[C@H](O)COP(=O)(O)O [FDP, fructose-1,6-diphosphate]
oxygen consumption after ischemic storage [1]: 76.7±4.4 O2 mmHg/min/gm
Mean Survival Time MST ± SE (graft) ([2]; Group 1: perioperative FDP (350 mg/kg IV + 10 mg/kg/min 90 min), no supplemental injections): 13.5 days and 13.5 ± 1.4101 days
Rejection Grades: number of hearts graded Moderate [2, 8]: 1
Rejection Grades: number of hearts graded Severe/Advanced [2, 8]: 8
Rejection Grades: number of hearts graded Mild ([2]; Group 1 perioperative FDP, Stanford grading scale, N 11, 1 heart not evaluated): 1
Mean Survival Time MST ± SE (graft) ([2]; Group 2: perioperative FDP + 350 mg/kg every 12 hours (bid), 350 mg/kg): 8.9 days and 8.9 ± 0.5154 days
Rejection Grades: number of hearts graded Mild ([2]; Group 2 FDP bid, N 8): 1
Rejection Grades: number of hearts graded Moderate ([2]; Group 2 FDP bid, N 8): 1
Rejection Grades: number of hearts graded Severe/Advanced ([2]; Group 2 FDP bid, N 8): 6
Mean Survival Time MST ± SE (graft) ([2]; Group 3: perioperative FDP + 350 mg/kg every 8 hours (tid), 350 mg/kg): 10 days and 10.0 ± 0.5345 days
Rejection Grades: number of hearts graded Moderate ([2]; Group 3 FDP tid, N 8): 1
Rejection Grades: number of hearts graded Severe/Advanced ([2]; Group 3 FDP tid, N 8): 7
Mean Survival Time MST ± SE (graft) ([2]; Group 4: perioperative FDP + 350 mg/kg every 6 hours (qid), 350 mg/kg): 9.6 days and 9.4 ± 0.8004 days
Rejection Grades: number of hearts graded Severe/Advanced ([2]; Group 4 FDP qid, N 8): 8
rejection grades (span in the group) ([2]; Group I perioperative FDP, Stanford grading scale): mild to severe/advanced
rejection grades (span in the group) ([2]; Group II FDP every 12 hours): mild to severe/advanced
rejection grades (span in the group) ([2]; Group III FDP every 8 hours): moderate to severe/advanced
rejection grades (span in the group) ([2]; Group IV FDP every 6 hours): severe/advanced
MST ± SEM (cardiac allograft survival) [3]: 11.4 Days and 11.4 ± 0.74 Days
post-storage O2 consumption [4]: 74.15±4.8 mmHg O2 /min/gm
Thymidine incorporation ([5]; FDP 1:10 dilution of 10% stock): 136 counts per 2 minute period
Thymidine incorporation ([5]; FDP 1:100 dilution of 10% stock): 1175 counts per 2 minute period
Thymidine incorporation ([5]; FDP 1:250 dilution of 10% stock): 24818 counts per 2 minute period
Thymidine incorporation ([5]; FDP 1:500 dilution of 10% stock): 52481 counts per 2 minute period
Thymidine incorporation ([5]; FDP 1:1000 dilution of 10% stock): 62518 counts per 2 minute period
Thymidine incorporation ([5]; FDP 1:10000 dilution of 10% stock, mean of 13 experiments): 89032 counts per 2 minute period
myocardial ATP content vs control group ([6]; after 15 min of reperfusion, FIG. 5, p<0.01): higher
hearts still showing a heartbeat ([6]; after 1 hour and 30 min of reperfusion following 4 h storage at 4° C., n=10, controls 5 of 14): all
post-storage heartbeat rate vs control group ([6]; after 4 h cold storage, FIG. 1): significantly higher
peak systolic aortic pressures vs control group ([6]; after 4 h cold storage, FIG. 2): significantly higher
mean pressures vs control group ([6]; after 4 h cold storage, FIG. 3): significantly higher
cardiac output rates vs control group ([6]; after 4 h cold storage, FIG. 4): significantly higher
post-storage O2 consumption [7]: 68.4±3.14 mmHg O2 /min/gm
